Reference: paper PMC12562379, “Facile Synthesis of N-vinylindoles via Knoevenagel Condensation: Molecular Features and Biological Activities” (International Journal of Molecular Sciences, 2025)
≈ marks a conversion by molar mass, not a printed value.

Tests used:
AGS = test: MTT assay, cytotoxic activity; type: cell-based, human; conditions: Homo sapiens, 24 h, n = 12
Method: (§1) The human ovarian SKOV-3, gastric adenocarcinoma AGS, cervical HeLa cell lines and non-cancerous keratinocytes HaCaT were obtained from the American Type Culture Collection (ATCC, Manassas, VA, USA). The cell lines were cultured in McCoy’s Medium, Dulbecco’s Modified Eagle’s Medium/F12, and DMEM, respectively (Merck Millipore, Burlington, MA, USA). Penicillin (100 units/mL), streptomycin ([…]), and 10% (v/v) fetal bovine serum (FBS) were added to all the media. The cells were incubated at 37 °C and 5% CO2.
(§2) To estimate the cytotoxic activity of the obtained compounds 2a-i, MTT assay was used. The cells (5 × 10^3 cells/well) were treated with the compounds in a range of concentrations 1–150 µg/mL. […] After 24 h, MTT solution (0.5 mg/mL) was added to the cells. Formazan crystals were dissolved in DMSO and the absorbance was measured with a microtiter plate reader (Epoch, BioTek Instruments, Winooski, VT, USA).

HeLa = test: MTT assay, cytotoxic activity; type: cell-based, human; conditions: Homo sapiens, 24 h, n = 12
Method: as §1, §2

SKOV-3 = test: MTT assay, cytotoxic activity; type: cell-based, human; conditions: Homo sapiens, SK-OV-3; SKOV-3, MTT, 24 h, n = 12
Method: as §1, §2

HaCaT = test: MTT assay, cytotoxic activity on non-cancerous keratinocytes; type: cell-based; conditions: Homo sapiens, 24 h, n = 12
Method: as §1, §2

SKOV-3 cells = test: Caspase-3/7 assay (apoptosis, Muse Cell Analyzer); type: cell-based, human; conditions: SKOV-3, 24 h
Method: The SKOV-3 cells (5 × 10^5 cells/well) were seeded and incubated with compound 2i at concentrations of 2, 5, 10, 15, 30, and 60 µg/mL for 24 h. Then, the cells were stained with Muse Caspase-3/7 Kit, according to the manufacturer’s instructions. Muse Cell Analyzer and Muse 1.4 Analysis Software (Merck Millipore, Burlington, MA, USA) were used to calculate the amount of live, early apoptotic, late apoptotic, and dead cells. The results are shown as a percentage of the cells in each population obtained from two independently repeated experiments (in three repeats).

S. aureus ATCC 6535 = test: Microbroth dilution assay; type: cell-based; conditions: Staphylococcus aureus, ATCC6535
S. aureus MRSA 12673 = test: Microbroth dilution assay; type: cell-based; conditions: Staphylococcus aureus, S. aureus MRSA 12673
C. glabrata ATCC 2001 = test: Microbroth dilution assay; type: cell-based, Candida glabrata; conditions: Nakaseomyces glabratus, ATCC2001
Method: The minimum inhibitory concentration (MIC) and minimum bactericidal/fungicidal concentration (MBC/MFC) of the tested compounds were determined by the microbroth dilution technique using 96-well plates based on the methodology described in the EUCAST (European Committee on Antimicrobial Susceptibility Testing) standards. Reference and clinical strains of Gram-positive (Staphylococcus aureus ATCC 6538, Staphylococuccus aureus MRSA 6347) and Gram-negative (Escherichia coli ATCC 8739) bacteria, and yeast (Candida albicans ATCC 10231, Candida glabrata ATCC 2001) were used for the assay. The studies were carried out in the Mueller–Hinton (MH) broth for bacteria and RPMI 1640 broth + MOPS (Sigma-Aldrich, Poland) buffer in the case of yeast. The dry test samples were dissolved in DMSO (dimethyl sulfoxide), resulting in a final concentration of 15 mg/mL, and then diluted in a geometric progression. Ampicillin (Sigma-Aldrich, Poland) acted as a control sample (512 to 4 µg/mL) for bacteria and ketoconazole (128 to 1 µg/mL) (Sigma-Aldrich, Poland) acted as a control sample for yeast. The cultures of microorganisms were prepared by transferring cells from the stock cultures to tubes with the appropriate broth and incubated with agitation in an aerobic atmosphere for 18 ± 2 h at 35 ± 1 °C; next, they were diluted to achieve an optical density corresponding to 5 × 105 (bacteria) or 2 × 105 (yeast) colony-forming units per mL (cfu/mL). An appropriate media (96 µL), along with the tested compounds with a final concentration range of 300–3.1 µg/mL (4 µL) and next microbial suspension (100 µL) were added to each well. Plates with samples were incubated in adequate conditions described above and microbial growth was assessed. […] (>90%; ketoconazole) but 50% (for other compounds) inhibits visible growth of yeasts. Next, as a control of microbial viability, 100 µL of the samples from each well without growth was inoculated on the MH or RPMI agar plates and incubated for 18 ± 2 h at 35 ± 1 °C and finally, the CFU was counted. The MBC/MFC was determined as the minimum concentration of compounds required to kill 99.9% the organisms.

[1] = biological target: T1, AGE2-BSA/sRAGE interaction (Homo sapiens, UniProt Q15109); test: ELISA AGE2-BSA/sRAGE inhibitory screening; type: binding
T1 construct: purchased Creative BioMart
T1 sequence (Q15109 23-342 limits assumed): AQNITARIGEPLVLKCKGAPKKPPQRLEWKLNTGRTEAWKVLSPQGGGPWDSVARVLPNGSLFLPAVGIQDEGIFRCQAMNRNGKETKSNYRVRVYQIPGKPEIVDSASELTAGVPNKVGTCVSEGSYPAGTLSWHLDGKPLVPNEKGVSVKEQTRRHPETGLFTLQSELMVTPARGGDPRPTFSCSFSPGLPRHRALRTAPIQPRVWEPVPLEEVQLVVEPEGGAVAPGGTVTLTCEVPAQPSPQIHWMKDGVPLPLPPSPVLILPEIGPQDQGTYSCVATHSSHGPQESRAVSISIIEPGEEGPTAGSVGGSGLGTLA
Method: The in vitro inhibitor screening of AGE2 (glyceraldehyde-modified AGE)-sRAGE interaction (soluble RAGE) was performed using a 96-well AGE-BSA-coated plate (Creative BioMart® ELISA kit, Shirley, NY, USA), according to the manufacturer’s instructions. 100 UA/mL soluble RAGE (sRAGE) was incubated with 100 μM of the tested compounds or 0.05% DMSO as a negative control on an AGE2-BSA-coated plate at room temperature for 60 min, shaking at 300 rpm on an orbital microplate shaker. After incubation, the wells were washed 4 times with wash buffer and horseradish peroxidase (HRP)-labeled anti-RAGE antibody was added and the plate was further incubated at room temperature for 60 min, shaking at 300 rpm on an orbital microplate shaker. After incubation, the wells were washed 4 times with wash buffer and the Substrate Reagent was added to each well. After an incubation at room temperature for 5 min, the HRP-labeled antibody sRAGE-AGE complex was then detected by measuring the absorbance at 450 nm using the microplate reader Varioskan (Thermo Fischer Scientific). These experiments were repeated two times.

[2] = system: HeLa, SKOV-3, AGS (and HaCaT) cell lines; test: MTT assay, ranges stated over several cell lines; type: cell-based, human; conditions: for IC50: Homo sapiens
Method: as §1, §2

[3] = system: S. aureus ATCC 6535, S. aureus MRSA 12673 and other tested bacterial and yeast strains; test: Microbroth dilution assay, ranges stated over several strains; type: cell-based; conditions: range over S. aureus ATCC 6535 and MRSA 12673
[4] = range over the cancer cell lines HeLa, SKOV-3 and AGS

- MIC (S. aureus ATCC 6535): 15 µg/mL (≈ 44.5 µM)
- MIC (S. aureus MRSA 12673; read-out: MIC): 30 µg/mL (≈ 88.9 µM)
- MIC (C. glabrata ATCC 2001): 60 µg/mL (≈ 178 µM)
- inhibition at 100 µM [1]: 49.4%
- MIC (range over strains) [3]: 15 to 30 µg/mL
SMILES: C(=C(\C1=NCCN1)n1ccc2ccccc21)/c1ccc2ccccc2c1 [Compound 2i, (Z)-1-[1-(4,5-dihydro-1H-imidazol-2-yl)-2-(naphthalen-2-yl)vinyl]-1H-indole]
- IC50 (AGS): 5.68 ± 0.41 µg/mL (≈ 16.8 µM)
- IC50 (HeLa): 2.03 ± 0.05 µg/mL (≈ 6.02 µM)
- IC50 (SKOV-3): 2.45 ± 0.13 µg/mL (≈ 7.26 µM)
- IC50 (HaCaT): 3.02 ± 0.18 µg/mL (≈ 8.95 µM)
- dead cells (SKOV-3 cells; 2 µg/mL): 6.07 ± 0.58%
- late apoptotic cells (SKOV-3 cells; 2 µg/mL): 11.52 ± 1.53%
- dead cells (SKOV-3 cells; 5 µg/mL): 7.65 ± 0.61%
- late apoptotic cells (SKOV-3 cells; 5 µg/mL): 22.72 ± 1.37%
- dead cells (SKOV-3 cells; 10 µg/mL): 18.11 ± 1.45%
- late apoptotic cells (SKOV-3 cells; 10 µg/mL): 48.85 ± 0.39%
- dead cells (SKOV-3 cells; 15 µg/mL): 31.52 ± 2.68%
- late apoptotic cells (SKOV-3 cells; 15 µg/mL): 54.94 ± 3.12%
- dead cells (SKOV-3 cells; 30 µg/mL): 68.95 ± 2.09%
- late apoptotic cells (SKOV-3 cells; 30 µg/mL): 28.21 ± 1.61%
- dead cells (SKOV-3 cells; 60 µg/mL): 66.85 ± 1.96%
- late apoptotic cells (SKOV-3 cells; 60 µg/mL): 31.87 ± 2.01%
- induction of apoptosis (SKOV-3 cells; from 2 µg/mL to 60 µg/mL): significantly induced apoptosis
- MBC (S. aureus ATCC 6535): 30 µg/mL (≈ 88.9 µM)
- MBC (S. aureus MRSA 12673): 30 µg/mL (≈ 88.9 µM)
- MFC (C. glabrata ATCC 2001): 60 µg/mL (≈ 178 µM)
- IC50 ([2]; range over HeLa and SKOV-3 cell lines): 2.03 to 2.45 µg/mL (≈ 6.02 to 7.26 µM)
- IC50 [2, 4]: 2.03 to 5.68 µg/mL (≈ 6.02 to 16.8 µM)
- IC50 (range over cell lines) [2, 4]: 2.03 to 5.58 µg/mL
- MBC (range over strains) [3]: 30 µg/mL (≈ 88.9 µM)
